Assay results reported in publication PMC4205912, “Sea foam as a source of fungal inoculum for the isolation of biologically active natural products” (Mycology, 2014).
≈ marks a conversion by molar mass, not a printed value. Read-outs that look alike come from different tables or passages of the source.

What was measured:
MRSA ATCC 33591 = assay: microbroth antibiotic susceptibility testing, MRSA; type: cell-based, methicillin-resistant Staphylococcus aureus; conditions: Staphylococcus aureus; for IC50: read-out: MRSA IC50; for MIC: read-out: MRSA MIC
Experimental: (§1) All microbroth antibiotic susceptibility testing was carried out in triplicate in 96-well plates in accordance with Clinical Laboratory Standards Institute testing standards (NCCLS, [2003]) using the following pathogens: MRSA ATCC 33591 (MRSA), S. warneri ATCC 17917, VRE EF379 (VRE), Pseudomonas aeruginosa ATCC 14210, Proteus vulgaris ATCC 12454, and Candida albicans ATCC 14035. Extract fractions were assayed at 250 µg/mL while pure compounds were serially diluted to generate a range of 12 concentrations (128–0.0625 µg/mL) in a final well volume concentration of 2% DMSO(aq). […] The optical density of the plate was recorded using a Thermo Scientific Varioskan Flash plate reader at 600 nm at time zero and then again after incubation of the plates for 22 h at 37°C. After subtracting the time zero OD600 from the final reading, the percentages of microorganism survival relative to vehicle control wells were calculated.

S. warneri ATCC 17917 = assay: microbroth antibiotic susceptibility testing, S. warneri; type: cell-based; conditions: Staphylococcus warneri; for IC50: read-out: S. warneri IC50; for MIC: read-out: S. warneri MIC
Experimental: as §1

[1] = tested on: Pseudomonas aeruginosa ATCC 14210; assay: microbroth antibiotic susceptibility testing, P. aeruginosa; type: cell-based; conditions: Pseudomonas aeruginosa, ATCC14210; triplicate, averaged; 22 h at 37°C
Experimental: as §1

VRE EF379 = assay: microbroth antibiotic susceptibility testing, VRE; type: cell-based, vancomycin-resistant Enterococcus faecium; conditions: Enterococcus, VRE; for IC50: read-out: VRE IC50; for MIC: read-out: VRE MIC
Experimental: as §1

[2] = tested on: human breast adenocarcinoma cells (ATCC HTB-26); assay: cytotoxicity assay (Alamar blue), HTB-26; type: cell-based; conditions: for IC50: Homo sapiens, HTB26, 72 h, read-out: HTB-26 IC50
Experimental: (§2) Human foreskin BJ fibroblast cells (ATCC CRL-2522), adult human epidermal keratinocytes (HEKa), and human breast adenocarcinoma cells (ATCC HTB-26) were grown to 80% confluency (growth conditions are provided in Supplementary Materials and Methods), the cells were counted, diluted, and plated into treated 96-well cell culture plates. The BJ fibroblast and HEKa cells were plated at a cell density of 10,000 cells per well and the HTB-26 cells were plated at cell density of 5000 cells per well in 90 µL of respective growth medium (without the addition of antibiotics) and incubated for 24 h to allow cells to adhere to the plates before treatment. Pure compounds were tested in triplicate in serial dilutions of eight concentrations ranging from 128 µg/mL to 1 µg/mL per well (final well volume of 100 µL, 1% DMSO per well). Each of the cell lines were incubated at 37°C in a humidified atmosphere of 5% CO2; the BJ fibroblast and HEKa cells for 24 h and the HTB-26 cells for 72 h. Each plate contained four uninoculated positive controls, four untreated negative controls, and one column containing a concentration range of zinc pyrithione or doxorubicin. Alamar blue was added, 24 h after the treatment, and fluorescence was monitored using a Thermo Scientific Varioskan Flash plate reader at 560/12 excitation, 590 nm emission both at time zero and 4 h after Alamar blue addition. The inferred percentage of cell viability relative to vehicle control wells were calculated after subtracting the time zero emission 590 nm measurement from the final reading and the IC50 was determined.

[3] = tested on: Candida albicans ATCC 14035; assay: microbroth susceptibility testing, C. albicans; type: cell-based; conditions: for IC50 / MIC: Candida albicans, ATCC14035
Experimental: as §1

[4] = tested on: Proteus vulgaris ATCC 12454; assay: microbroth antibiotic susceptibility testing, P. vulgaris; type: cell-based; conditions: Proteus vulgaris, ATCC12454; triplicate, averaged; 22 h at 37°C
Experimental: as §1, with “14035.” for “14035. Extract fractions were assayed at 250 µg/mL while pure compounds were serially diluted to generate a range of 12 concentrations (128–0.0625 µg/mL) in a final well volume concentration of 2% DMSO(aq).”

[5] = tested on: adult human epidermal keratinocytes (HEKa); assay: cytotoxicity assay (Alamar blue), keratinocytes; type: cell-based; conditions: Homo sapiens; HeKa cells, 24 h; read-out: Keratinocyte IC50
Experimental: as §2

[6] = tested on: Human foreskin BJ fibroblast cells (ATCC CRL-2522); assay: cytotoxicity assay (Alamar blue), fibroblasts; type: cell-based; conditions: for IC50: Homo sapiens, 24 h, read-out: Fibroblast IC50
Experimental: as §2

[7] = triplicate, averaged, 22 h at 37°C
[8] = HTB-26 breast cancer cells, 72 h
[9] = at a concentration of 128 μg/mL
[10] = ATCC17917, triplicate, averaged, 22 h at 37°C

Compound | IC50 [1] [µg/mL] | MIC [1] [µg/mL] | IC50 (VRE EF379; [7]) [µg/mL] | MIC (VRE EF379; [7]) [µg/mL] | HTB-26 MIC [2, 8] [µg/mL] | IC50 [2, 8] [µg/mL] | IC50 (MRSA ATCC 33591; [7]) [µg/mL] | MIC (MRSA ATCC 33591; [7]) [µg/mL] | IC50 [3, 7] [µg/mL] | MIC [3, 7] [µg/mL] | IC50 [4] [µg/mL] | MIC [4] [µg/mL] | IC50 (S. warneri ATCC 17917; [10]) [µg/mL] | MIC (S. warneri ATCC 17917; [10]) [µg/mL] | IC50 [5] [µg/mL] | IC50 ([6]; BJ cells) [µg/mL] | other results
CN[C@H](CC(C)C)C(=O)N[C@H]1C(=O)N[C@@H](CC(N)=O)C(=O)N[C@H]2C(=O)N[C@H]3C(=O)N[C@H](C(=O)N[C@H](C(=O)O)c4cc(O)cc(O)c4-c4cc3ccc4O)[C@H](O)c3ccc(c(Cl)c3)Oc3cc2cc(c3O[C@@H]2O[C@H](CO)[C@@H](O)[C@H](O)[C@H]2O[C@H]2C[C@](C)(N)[C@H](O)[C@H](C)O2)Oc2ccc(cc2Cl)[C@H]1O [Vancomycin, vancomycin, reference compound] | – | – | – | – | – | – | – | – | – | – | – | – | – | – | – | – | IC50 (MRSA ATCC 33591; 22 h): 0.88 µg/mL (≈ 0.607 µM); MIC (MRSA ATCC 33591; 22 h): 1.6 µg/mL (≈ 1.1 µM); IC50 (S. warneri ATCC 17917; ATCC17917, 22 h): 0.75 µg/mL (≈ 0.518 µM); MIC (S. warneri ATCC 17917; ATCC17917, 22 h): 1 µg/mL (≈ 0.69 µM)
Cc1cc(O)c2c(c1)C(=O)c1cccc(O)c1C2=O [Chrysophanol, chrysophanol] | > 128 | > 128 | > 128 | > 128 | >64 | > 64 | > 128 | > 128 | > 128 | > 128 | > 128 | > 128 | > 128 | > 128 | > 64 | > 64 | activity against HTB-26 cell line [2, 9]: inactive; activity against fibroblast cell line [6, 9]: inactive
C[C@@H]1[C@H](O)[C@@H](C)/C=C/C=C/CC/C=C/C=C/C=C/C=C/C(O[C@H]2O[C@H](C)[C@@H](O)[C@H](N)[C@@H]2O)CC2O[C@](O)(CC(O)C(O)CCC(O)CC(O)CC(O)CC(=O)O[C@H]1C)CC(O)C2C(=O)O (stereo partly drawn) [Nystatin, nystatin, reference compound] | – | – | – | – | – | – | – | – | – | – | – | – | – | – | – | – | C. albicans IC50 [3, 7]: 0.92 µg/mL; C. albicans MIC [3, 7]: 1.6 µg/mL
Cc1cc(O)c2c(c1)C(C1c3cccc(O)c3C(=O)c3c(O)cc(C)cc31)c1cccc(O)c1C2=O (stereo not drawn) [Chrysophanol bianthrone, chrysophanol bianthrone] | > 128 | > 128 | 128 (≈ 268 µM) | > 128 | 64 | 5 (≈ 10.4 µM) | > 128 | > 128 | > 128 | > 128 | > 128 | > 128 | > 128 | > 128 | > 64 | > 64 | –
Cc1cc(CO)c2c(=O)c3c(O)cccc3oc2c1 [1-hydroxy-6-methyl-8-hydroxymethylxanthone] | > 128 | > 128 | > 128 | > 128 | 32 | 24 (≈ 93.7 µM) | > 128 | > 128 | > 128 | > 128 | > 128 | > 128 | > 128 | > 128 | 12 (≈ 46.8 µM) | 29 (≈ 113 µM) | –
COc1cccc2c1C(=O)c1c(O)c3c(c(O)c1C2=O)C[C@@](O)(C(=O)CO)C[C@@H]3O[C@H]1C[C@H](N)[C@H](O)[C@H](C)O1 [Doxorubromycin, doxorubicin, reference compound] | – | – | – | – | >16 | 2.5 (≈ 4.6 µM) | – | – | – | – | – | – | – | – | – | – | –
C[C@H]1CCC/C=C/[C@@H]2C[C@H](O)C[C@H]2[C@H](O)/C=C/C(=O)O1 [Brefeldin A, brefeldin A] | > 128 | > 128 | > 128 | > 128 | – | > 0.5 | > 128 | > 128 | 20 (≈ 71.3 µM) | 128 (≈ 457 µM) | > 128 | > 128 | > 128 | > 128 | 0.5 (≈ 1.78 µM) | > 64 | effect against C. albicans [3]: antifungal effect
COC1=C(Cl)C(C)(O)c2c(oc(=O)c3c(O)cc(OC)cc23)C1=O (stereo not drawn) [TMC-264] | > 128 | > 128 | 100 (≈ 284 µM) | > 128 | 8 | 2.8 (≈ 7.94 µM) | 14 (≈ 39.7 µM) | 64 (≈ 181 µM) | > 128 | > 128 | > 128 | > 128 | 23 (≈ 65.2 µM) | 64 (≈ 181 µM) | 1 (≈ 2.84 µM) | 13 (≈ 36.9 µM) | –
CO[C@H]1/C=C/O[C@@]2(C)Oc3c(C)c(O)c4c(O)c(c(/C=N/N5CCN(C)CC5)c(O)c4c3C2=O)NC(=O)/C(C)=C\C=C\[C@H](C)[C@H](O)[C@@H](C)[C@@H](O)[C@@H](C)[C@H](OC(C)=O)[C@@H]1C [Rifampicin, rifampicin, reference compound] | – | – | 0.5 (≈ 0.608 µM) | 2 (≈ 2.43 µM) | – | – | – | – | – | – | – | – | – | – | – | – | –
CC(C)C12SSSSC3(C(=O)N1C)C1OC45C(=O)N(C)C(CO)C(=O)N4C4Nc6ccccc6C4(C5O)C14c1ccccc1NC4N3C2=O (stereo not drawn) [Leptosin J, leptosin J] | > 128 | > 128 | – | – | 0.5 | – | – | – | > 128 | > 128 | > 128 | > 128 | 9 (≈ 12.1 µM) | 64 (≈ 86.4 µM) | > 0.5 | – | IC50 (VRE EF379; 22 h): 128 µg/mL (≈ 173 µM); MIC (VRE EF379; 22 h): > 128 µg/mL; IC50 [2]: > 0.5 µg/mL; IC50 (MRSA ATCC 33591; 22 h): 0.7 µg/mL (≈ 0.945 µM); MIC (MRSA ATCC 33591; 22 h): 2 µg/mL (≈ 2.7 µM); IC50 ([6]; BJ): 0.5 µg/mL (≈ 0.675 µM)
